Assays:
Type in all cases: physicochemical
[1] = Vitamin content of solution (C) in polyolefin holders after autoclaving and storage at 40° C. for four months, measured through HPLC (Example 3)
Procedure: Solution (C) (4 ml) prepared in Example 1 was charged into each of holders made of the materials shown in Table 3, to thereby obtain a holder which contains a solution of vitamin D3. Each of these holders containing a solution of vitamin D3 was subjected to autoclaving and wrapped in a nylon multi-layered-film bag together with a deoxidizing agent (trade name: Ageless, product of Mitsubishi Gas Chem. Co., Inc.). The thus-wrapped holders were allowed to stand at 40° C. for four months. Thereafter, the content of each vitamin in each holder was measured through HPLC. The content of each vitamin is represented by a percentage (%) of the initially incorporated amount.

[2] = Vitamin contents in transfusion fluid containers of Examples 4 and 5 after autoclaving and 40° C. four-month storage, bioassay (vitamin B12, biotin) or HPLC (other vitamins)
Procedure: In a holder produced from a three-layered film (the thickness of each layer: 10 μm) in which the outer and the inner layers are made of polyethylene and the intermediate layer is made of ethylene.tetracyclododecene copolymer (trade name: Apel, product of Mitsui Chemicals, Inc.), solution (C) (4 ml) was charged and the inlet was melt-sealed. In a two-compartment container, the prepared holder was attached to one of the compartments. […] The above-described transfusion fluid containers in Examples 4 and 5 were allowed to stand at 40° C. for four months after autoclaving. Thereafter, the contents of vitamins in the containers were measured through a bioassay according to Pharmacopoeia of Japan (for vitamin B12 and biotin) or through HPLC (for other vitamins). The content of each vitamin is represented by a percentage (%) of the initially incorporated amount.

[3] = Vitamin content of transfusion products of Examples 1 and 2 after four-month storage
Procedure: In a holder produced from a polyethylene film having a thickness of 30 μm, solution (C) (4 ml) was charged and the inlet was melt-sealed, to thereby obtain a holder for the solution containing vitamin D3. The surface area of a solution-holding portion of the holder was 16 cm^2 and the volume of polyethylene constituting the solution-holding portion was 0.048 cm^3.
In a polyethylene-made two-compartment container (see FIG. 2), the above-described holder for vitamin D3 solution had been previously attached to one of the compartments. Solution (A) (600 ml) and solution (B) (300 ml) were charged into two compartments separately in an atmosphere replaced with nitrogen, and the container was sealed. Subsequently, the container was subjected to autoclaving through a customary method, to thereby obtain a transfusion product. The transfusion product was wrapped in a light-shielding nylon multi-layer bag together with a deoxidizing agent (trade name: Ageless, product of Mitsubishi Gas Chem. Co., Inc.).
In the same manner as in Example 1, solution (A), solution (B), and solution (C), having the compositions shown in Table 2, were prepared, and these solutions were charged into a holder and two compartments of a transfusion fluid container as described in Example 1. Subsequently, the container was subjected to autoclaving, to thereby obtain a transfusion product. […]

Structure (SMILES): C=C1CC[C@H](O)C/C1=C/C=C1\CCC[C@]2(C)[C@@H]([C@H](C)CCCC(C)C)CC[C@@H]12 [Vitamin D3, cholecalciferol]
- Vitamin content (%) of initially incorporated amount ([1]; holder No. 1, polyethylene, 30 μm, resin 7.4 cm^3 per μmol vitamin D, 40° C., 4 months): 86.2%
- Vitamin content (%) of initially incorporated amount ([1]; holder No. 1, polyethylene, 30 μm, resin 7.4 cm^3 per μmol vitamin D, after sterilization): 95.4%
- Vitamin content (%) of initially incorporated amount ([1]; holder No. 2, polyethylene, 100 μm, resin 18.5 cm^3 per μmol vitamin D, 40° C., 4 months): 81.3%
- Vitamin content (%) of initially incorporated amount ([1]; holder No. 2, polyethylene, 100 μm, resin 18.5 cm^3 per μmol vitamin D, after sterilization): 94.6%
- Vitamin content (%) of initially incorporated amount ([1]; holder No. 3, polypropylene, 30 μm, resin 7.4 cm^3 per μmol vitamin D, 40° C., 4 months): 85.8%
- Vitamin content (%) of initially incorporated amount ([1]; holder No. 3, polypropylene, 30 μm, resin 7.4 cm^3 per μmol vitamin D, after sterilization): 96.2%
- Vitamin content (%) of initially incorporated amount ([1]; holder No. 4, polyethylene, 250 μm, resin 123.2 cm^3 per μmol vitamin D, 40° C., 4 months): 66.3%
- Vitamin content (%) of initially incorporated amount ([1]; holder No. 4, polyethylene, 250 μm, resin 123.2 cm^3 per μmol vitamin D, 40° C., 4 months, listed as vitamin D3): fell outside the acceptable range
- Vitamin content (%) of initially incorporated amount ([1]; holder No. 4, polyethylene, 250 μm, resin 123.2 cm^3 per μmol vitamin D, after sterilization): 89.8%
- Vitamin content (%) of initially incorporated amount ([1]; holder No. 5, polypropylene, 250 μm, resin 123.2 cm^3 per μmol vitamin D, 40° C., 4 months): 69.1%
- Vitamin content (%) of initially incorporated amount ([1]; holder No. 5, polypropylene, 250 μm, resin 123.2 cm^3 per μmol vitamin D, 40° C., 4 months, listed as vitamin D3): fell outside the acceptable range
- Vitamin content (%) of initially incorporated amount ([1]; holder No. 5, polypropylene, 250 μm, resin 123.2 cm^3 per μmol vitamin D, after sterilization): 87.5%
- Vitamin content, percentage (%) of the initially incorporated amount ([2]; Example 4 transfusion fluid container, 40° C., 4 months): 88.7%
- Vitamin content, percentage (%) of the initially incorporated amount ([2]; Example 4 transfusion fluid container, immediately after sterilization): 89.8%
- Vitamin content, percentage (%) of the initially incorporated amount ([2]; Example 5 transfusion fluid container, 40° C., 4 months): 89.6%
- Vitamin content, percentage (%) of the initially incorporated amount ([2]; Example 5 transfusion fluid container, immediately after sterilization): 90.1%
- Vitamin content after storage (acceptable range ≧80%) [3]: ≥ 80%

From US6572603B1, “Vitamin d solution holder and containers for transfusions” (Otsuka Pharmaceutical Factory, Inc., priority 1998, dated 2003)
